Assay [1] addresses Tyrosine-protein kinase JAK2 (Homo sapiens) (UniProt O60674). The assay can be described thus: Inhibition of wild-type human partial length JAK2 JH1 catalytic domain (A829 to G1132 residues) expressed in mammalian expression system at 10 uM by Kinomescan method relative to control.
The target of assay [2] is Mitogen-activated protein kinase kinase kinase 4 (Homo sapiens) (UniProt Q9Y6R4). Kind of assay: Inhibition of wild-type human partial length MAP3K4 (G1319 to E1608 residues) expressed in bacterial expression system at 10 uM by Kinomescan method relative to control.
In assay [3] the test system is Hepatocyte growth factor receptor (Homo sapiens), P08581 [M1250T]. The assay can be described thus: Inhibition of human partial length MET M1250T mutant (D1010 to S1367 residues) expressed in bacterial expression system at 10 uM by Kinomescan method relative to control.
The target in assay [4] is Uncharacterized serine/threonine-protein kinase SBK3 (Homo sapiens) (UniProt P0C264). Kind of assay: Inhibition of wild-type human partial length SgK110 (L22 to R329 residues) expressed in bacterial expression system at 10 uM by Kinomescan method relative to control.
Assay [5] concerns the target Serine/threonine-protein kinase 36 (Homo sapiens) (UniProt Q9NRP7). The assay can be described thus: Inhibition of wild-type human partial length STK36 (M1 to T271 residues) expressed in bacterial expression system at 10 uM by Kinomescan method relative to control.
Assay [6] deals with Mitogen-activated protein kinase kinase kinase 7 (Homo sapiens) (UniProt O43318). The assay can be described thus: Inhibition of wild-type human partial length TAK1 (M1 to Q303 residues) expressed in mammalian expression system at 10 uM by Kinomescan method relative to control.
In assay [7] the target is Serine/threonine-protein kinase WNK3 (Homo sapiens) (UniProt Q9BYP7). The assay can be described thus: Inhibition of wild-type human partial length WNK3 (M1 to D434 residues) expressed in mammalian expression system at 10 uM by Kinomescan method relative to control.
The target in assay [8] is Mitogen-activated protein kinase kinase kinase 19 (Homo sapiens) (UniProt Q56UN5). The assay can be described thus: Inhibition of wild-type human partial length YSK4 (T1019 to H1328 residues) expressed in mammalian expression system at 10 uM by Kinomescan method relative to control.
For assay [9], the target named is Tyrosine-protein kinase ITK/TSK (Homo sapiens, UniProt Q08881). Kind of assay: Binding affinity to wild-type human partial length ITK (R335 to L620 residues) expressed in bacterial expression system by Kinomescan method.
Sequence of Tyrosine-protein kinase ITK/TSK (Q08881 whole entry, the tested form may be a part): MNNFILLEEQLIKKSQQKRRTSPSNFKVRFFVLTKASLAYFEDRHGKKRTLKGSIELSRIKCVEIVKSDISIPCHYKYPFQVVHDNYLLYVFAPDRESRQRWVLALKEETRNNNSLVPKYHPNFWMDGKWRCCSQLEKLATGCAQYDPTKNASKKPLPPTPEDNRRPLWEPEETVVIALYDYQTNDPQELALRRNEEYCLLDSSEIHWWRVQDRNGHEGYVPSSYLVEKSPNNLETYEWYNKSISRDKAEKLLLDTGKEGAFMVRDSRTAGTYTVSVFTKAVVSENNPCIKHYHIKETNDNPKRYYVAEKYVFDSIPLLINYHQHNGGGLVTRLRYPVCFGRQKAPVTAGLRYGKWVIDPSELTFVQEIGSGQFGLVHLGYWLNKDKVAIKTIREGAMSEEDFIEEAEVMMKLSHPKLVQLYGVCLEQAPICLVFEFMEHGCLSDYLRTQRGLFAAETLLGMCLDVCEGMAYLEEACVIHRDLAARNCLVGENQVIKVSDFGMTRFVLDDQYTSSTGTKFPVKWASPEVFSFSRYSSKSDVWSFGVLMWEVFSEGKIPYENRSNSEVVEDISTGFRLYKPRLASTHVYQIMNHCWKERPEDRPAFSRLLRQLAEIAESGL
Assay [10] has as its target Tyrosine-protein kinase Tec (Homo sapiens, UniProt P42680). The assay can be described thus: Binding affinity to wild-type human partial length TEC (L341 to D620 residues) expressed in bacterial expression system by Kinomescan method.
Assay [11] concerns the target Tyrosine-protein kinase TXK (Homo sapiens, UniProt P42681). Kind of assay: Binding affinity to wild-type human partial length TXK tyrosine kinase (L238 to W527 residues) expressed in bacterial expression system by Kinomescan method.
The next assay addresses Cytochrome P450 3A4 (Homo sapiens, UniProt P08684). Kind of assay: Inhibition of CYP3A4 (unknown origin).
The target of the next assay is Cytochrome P450 2C9 (Homo sapiens, UniProt P11712). The assay can be described thus: Inhibition of CYP2C9 (unknown origin).
Sequence of Cytochrome P450 2C9 (P11712 whole entry): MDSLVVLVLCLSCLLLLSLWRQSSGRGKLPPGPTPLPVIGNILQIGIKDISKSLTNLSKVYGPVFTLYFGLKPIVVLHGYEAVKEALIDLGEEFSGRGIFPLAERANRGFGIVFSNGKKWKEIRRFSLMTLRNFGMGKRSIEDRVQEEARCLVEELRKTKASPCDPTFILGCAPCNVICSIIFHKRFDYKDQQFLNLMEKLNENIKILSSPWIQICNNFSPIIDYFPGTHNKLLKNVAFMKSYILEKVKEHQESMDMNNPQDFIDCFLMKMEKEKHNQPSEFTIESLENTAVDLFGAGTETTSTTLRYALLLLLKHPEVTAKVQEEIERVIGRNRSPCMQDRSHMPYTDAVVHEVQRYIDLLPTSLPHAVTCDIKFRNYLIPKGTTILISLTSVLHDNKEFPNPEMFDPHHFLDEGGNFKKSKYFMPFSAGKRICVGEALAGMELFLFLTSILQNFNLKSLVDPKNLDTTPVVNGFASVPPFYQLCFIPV
In the next assay the target is Cytochrome P450 2C19 (Homo sapiens, UniProt P33261). The assay can be described thus: Inhibition of CYP2C19 (unknown origin).
Sequence of Cytochrome P450 2C19 (P33261 whole entry): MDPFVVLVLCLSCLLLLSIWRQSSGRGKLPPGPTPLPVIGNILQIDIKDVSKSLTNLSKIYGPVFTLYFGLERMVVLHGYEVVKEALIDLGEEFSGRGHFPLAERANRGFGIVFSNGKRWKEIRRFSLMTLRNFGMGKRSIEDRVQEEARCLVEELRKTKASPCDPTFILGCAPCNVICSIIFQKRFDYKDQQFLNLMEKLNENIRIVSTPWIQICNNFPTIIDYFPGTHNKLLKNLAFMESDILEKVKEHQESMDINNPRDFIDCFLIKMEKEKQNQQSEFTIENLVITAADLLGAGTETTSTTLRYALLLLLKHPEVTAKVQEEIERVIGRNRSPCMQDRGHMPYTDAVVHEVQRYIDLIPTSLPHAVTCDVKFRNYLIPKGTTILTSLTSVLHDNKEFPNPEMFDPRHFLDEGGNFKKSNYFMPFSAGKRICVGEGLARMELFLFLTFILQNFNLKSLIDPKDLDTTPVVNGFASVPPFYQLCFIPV
A further assay has as its target Cytochrome P450 1A2 (Homo sapiens, UniProt P05177). Kind of assay: Inhibition of CYP1A2 (unknown origin).
Assay [12] deals with B cell. The assay can be described thus: Antiproliferative activity against goat anti-human IgM antibody/recombinant human IL4-stimulated human PBMC-derived B cells assessed as decrease in cell viability pretreated for 30 mins followed by goat anti-human IgM antibody/recombinant human IL4 stimulation for 3 days by CellTiter-Glo reagent assay. The assay is classed as functional, cell-based. A general note: ATP-based viability assays read luminescence as a measure of living cells.

Assay [13] has as its system B cell. Kind of assay: Antiproliferative activity against goat anti-human IgM antibody-stimulated human PBMC-derived B cells assessed as decrease in cell viability pretreated for 30 mins followed by goat anti-human IgM antibody stimulation for 3 days by CellTiter-Glo reagent assay. The assay is classed as functional, cell-based.
Assay [14] deals with B cell. Kind of assay: Antiproliferative activity against goat anti-human IgM antibody/BAFF-stimulated human PBMC-derived B cells assessed as decrease in cell viability pretreated for 30 mins followed by goat anti-human IgM antibody/BAFF stimulation for 3 days by CellTiter-Glo reagent assay. It counts as functional, cell-based.
Assay [15] has as its target Calcium/calmodulin-dependent protein kinase kinase 1 (Homo sapiens) (UniProt Q8N5S9). The assay can be described thus: Inhibition of wild-type human partial length CAMKK1 (R65 to E414 residues) expressed in bacterial expression system at 1 uM by Kinomescan method relative to control.
Assay [16] has as its target Cyclin-dependent kinase 2 (Homo sapiens) (UniProt P24941). The assay can be described thus: Inhibition of wild-type human full length CDK2 (M1 to L298 residues) expressed in bacterial expression system at 1 uM by Kinomescan method relative to control.
Assay [17] deals with Cyclin-dependent kinase-like 1 (Homo sapiens) (UniProt Q00532). Kind of assay: Inhibition of wild-type human full length CDKL1 (M1 to I358 residues) expressed in mammalian expression system at 1 uM by Kinomescan method relative to control.
Assay [18] addresses Dual specificity protein kinase CLK3 (Homo sapiens) (UniProt P49761). The assay can be described thus: Inhibition of wild-type human full length CLK3 (M1 to R490 residues) expressed in bacterial expression system at 1 uM by Kinomescan method relative to control.
Assay [19] has as its target Ephrin type-A receptor 7 (Homo sapiens) (UniProt Q15375). The assay can be described thus: Inhibition of wild-type human partial length EPHA7 (Y608 to S912 residues) expressed in bacterial expression system at 1 uM by Kinomescan method relative to control.
The test system of assay [20] is Fibroblast growth factor receptor 3 (Homo sapiens), P22607 [G697C]. The assay can be described thus: Inhibition of human partial length FGFR3 G697C mutant (R442 to S771 residues) expressed in bacterial expression system at 1 uM by Kinomescan method relative to control.
Assay [21] has as its system Receptor-type tyrosine-protein kinase FLT3 (Homo sapiens), P36888 [D835V]. Kind of assay: Inhibition of human partial length FLT3 D835V mutant (V592 to Y969 residues) expressed in bacterial expression system at 1 uM by Kinomescan method relative to control.
In assay [22] the target is Rho-associated protein kinase 2 (Homo sapiens) (UniProt O75116). The assay can be described thus: Inhibition of wild-type human partial length ROCK2 (M1 to T431 residues) expressed in mammalian expression system at 1 uM by Kinomescan method relative to control.
In assay [23] the target is Proto-oncogene tyrosine-protein kinase Src (Homo sapiens) (UniProt P12931). Kind of assay: Inhibition of wild-type human partial length SRC (L240 to L536 residues) expressed in bacterial expression system at 1 uM by Kinomescan method relative to control.
Assay [24] has as its target Serine/threonine-protein kinase TNNI3K (Homo sapiens) (UniProt Q59H18). Kind of assay: Inhibition of wild-type human full length TNNI3K (M1 to S835 residues) expressed in bacterial expression system at 1 uM by Kinomescan method relative to control.
The target of assay [25] is Serine/threonine-protein kinase WNK1 (Homo sapiens) (UniProt Q9H4A3). The assay can be described thus: Inhibition of wild-type human partial length WNK1 (Q194 to A490 residues) expressed in mammalian expression system at 1 uM by Kinomescan method relative to control.

pIC50, pKd: −log10 of the molar value.

A word on the inhibition: it is the drop in the measured response relative to a control, in per cent. The term pKd denotes the negative decadic logarithm of the Kd, by convention in mol/L. A low value points to a high Kd. In general, pIC50 refers to −log10 of the IC50, conventionally taken in molar units.

Sequence of Tyrosine-protein kinase TXK (P42681 whole entry, the tested form may be a part): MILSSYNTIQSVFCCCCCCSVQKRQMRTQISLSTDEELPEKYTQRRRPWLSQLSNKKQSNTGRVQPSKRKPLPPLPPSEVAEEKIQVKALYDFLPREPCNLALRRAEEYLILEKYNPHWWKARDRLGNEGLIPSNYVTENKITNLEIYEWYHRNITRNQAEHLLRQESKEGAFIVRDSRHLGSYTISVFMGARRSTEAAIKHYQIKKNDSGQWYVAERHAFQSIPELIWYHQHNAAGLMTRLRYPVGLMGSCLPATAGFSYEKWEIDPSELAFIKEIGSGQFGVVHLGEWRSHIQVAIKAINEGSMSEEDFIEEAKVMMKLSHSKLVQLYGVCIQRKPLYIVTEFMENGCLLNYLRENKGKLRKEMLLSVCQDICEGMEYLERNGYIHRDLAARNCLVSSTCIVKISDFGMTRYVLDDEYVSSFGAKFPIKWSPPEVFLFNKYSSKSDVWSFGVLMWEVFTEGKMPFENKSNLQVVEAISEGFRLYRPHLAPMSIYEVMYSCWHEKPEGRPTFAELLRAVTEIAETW
Sequence of Cytochrome P450 1A2 (P05177 whole entry): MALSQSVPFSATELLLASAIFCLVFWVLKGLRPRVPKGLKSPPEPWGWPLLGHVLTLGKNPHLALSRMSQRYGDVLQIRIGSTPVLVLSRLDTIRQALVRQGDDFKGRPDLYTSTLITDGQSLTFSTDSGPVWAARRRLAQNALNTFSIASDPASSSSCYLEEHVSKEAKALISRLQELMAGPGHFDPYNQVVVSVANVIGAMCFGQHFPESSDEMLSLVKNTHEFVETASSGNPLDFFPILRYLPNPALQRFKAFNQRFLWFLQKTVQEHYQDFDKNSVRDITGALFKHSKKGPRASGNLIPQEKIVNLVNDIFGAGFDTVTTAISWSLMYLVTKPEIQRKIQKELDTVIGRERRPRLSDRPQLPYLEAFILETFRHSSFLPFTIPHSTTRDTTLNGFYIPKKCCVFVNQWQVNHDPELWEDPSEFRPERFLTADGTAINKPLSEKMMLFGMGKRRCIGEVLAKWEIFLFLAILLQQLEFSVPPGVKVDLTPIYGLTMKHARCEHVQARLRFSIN
Sequence of Cytochrome P450 3A4 (P08684 whole entry): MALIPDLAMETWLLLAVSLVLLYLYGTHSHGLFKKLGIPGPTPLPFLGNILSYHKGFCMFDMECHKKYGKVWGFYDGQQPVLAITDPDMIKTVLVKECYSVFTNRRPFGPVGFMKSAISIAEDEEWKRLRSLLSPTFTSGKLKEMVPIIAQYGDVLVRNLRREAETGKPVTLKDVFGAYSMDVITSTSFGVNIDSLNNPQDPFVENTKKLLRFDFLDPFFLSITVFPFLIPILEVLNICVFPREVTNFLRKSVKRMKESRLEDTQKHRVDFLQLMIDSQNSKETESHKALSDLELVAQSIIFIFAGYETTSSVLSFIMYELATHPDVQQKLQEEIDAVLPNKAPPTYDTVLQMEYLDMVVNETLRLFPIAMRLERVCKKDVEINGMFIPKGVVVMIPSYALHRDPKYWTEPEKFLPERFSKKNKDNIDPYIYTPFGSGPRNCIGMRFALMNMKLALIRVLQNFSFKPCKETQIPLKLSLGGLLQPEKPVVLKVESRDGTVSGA
Sequence of Tyrosine-protein kinase Tec (P42680 whole entry, the tested form may be a part): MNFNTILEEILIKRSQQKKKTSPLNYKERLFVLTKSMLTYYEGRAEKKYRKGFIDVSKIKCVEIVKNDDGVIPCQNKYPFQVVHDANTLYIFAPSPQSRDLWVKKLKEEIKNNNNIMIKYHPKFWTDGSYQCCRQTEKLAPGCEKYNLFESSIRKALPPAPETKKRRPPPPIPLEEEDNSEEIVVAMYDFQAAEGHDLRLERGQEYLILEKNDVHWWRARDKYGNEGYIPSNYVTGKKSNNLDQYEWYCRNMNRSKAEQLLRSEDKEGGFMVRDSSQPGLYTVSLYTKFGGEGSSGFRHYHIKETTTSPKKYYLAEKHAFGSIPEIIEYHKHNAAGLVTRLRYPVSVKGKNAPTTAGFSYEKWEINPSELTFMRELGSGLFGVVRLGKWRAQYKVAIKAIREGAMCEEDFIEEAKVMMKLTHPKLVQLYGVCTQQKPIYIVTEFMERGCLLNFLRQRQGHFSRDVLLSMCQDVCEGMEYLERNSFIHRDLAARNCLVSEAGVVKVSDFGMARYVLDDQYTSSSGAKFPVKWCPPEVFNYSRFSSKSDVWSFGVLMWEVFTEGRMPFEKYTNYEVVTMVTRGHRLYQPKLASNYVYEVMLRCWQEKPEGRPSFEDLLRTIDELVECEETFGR
Sequence of Ephrin type-A receptor 7 (Homo sapiens) (Q15375 28-998 limits assumed): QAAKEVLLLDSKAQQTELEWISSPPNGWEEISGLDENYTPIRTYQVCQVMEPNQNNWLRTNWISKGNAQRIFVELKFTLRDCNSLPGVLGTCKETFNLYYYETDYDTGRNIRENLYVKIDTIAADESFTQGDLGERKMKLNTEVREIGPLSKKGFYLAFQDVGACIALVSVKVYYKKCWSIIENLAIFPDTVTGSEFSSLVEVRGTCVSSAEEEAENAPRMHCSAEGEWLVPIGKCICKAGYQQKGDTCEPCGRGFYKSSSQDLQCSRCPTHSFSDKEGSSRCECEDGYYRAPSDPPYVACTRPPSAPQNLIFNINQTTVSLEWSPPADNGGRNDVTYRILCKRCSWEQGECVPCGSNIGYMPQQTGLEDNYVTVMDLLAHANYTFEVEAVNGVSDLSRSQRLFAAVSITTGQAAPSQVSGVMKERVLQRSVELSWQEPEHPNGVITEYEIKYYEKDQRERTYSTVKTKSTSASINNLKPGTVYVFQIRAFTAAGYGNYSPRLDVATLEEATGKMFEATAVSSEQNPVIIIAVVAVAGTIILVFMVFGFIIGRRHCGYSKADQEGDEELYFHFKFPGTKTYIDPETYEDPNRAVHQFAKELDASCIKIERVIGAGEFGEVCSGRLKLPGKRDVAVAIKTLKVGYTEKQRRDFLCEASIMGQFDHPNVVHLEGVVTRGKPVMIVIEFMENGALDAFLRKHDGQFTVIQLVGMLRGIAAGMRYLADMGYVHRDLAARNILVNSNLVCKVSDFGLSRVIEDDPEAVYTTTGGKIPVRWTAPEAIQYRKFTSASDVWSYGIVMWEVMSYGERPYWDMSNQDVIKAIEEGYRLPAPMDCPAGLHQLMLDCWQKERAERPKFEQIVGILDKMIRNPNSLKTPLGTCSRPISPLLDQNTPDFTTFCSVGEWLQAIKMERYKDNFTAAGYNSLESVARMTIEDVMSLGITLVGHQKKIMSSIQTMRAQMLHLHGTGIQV

Take `O=C(Nc1cccc([C@H]2CCCN(c3ncnc4[nH]ccc34)C2)c1)Nc1ccccc1N1CCCC1`: the inhibition in assay [1] amounted to 0%; in [2], 87%; in [3] it was 97%; in assay [4] it was 100%; in assay [5], 90%; in assay [6], 24%. The inhibition in assay [7] worked out at 61%; in assay [8], 2.3%. The negative logarithm of the Kd (pKd) in assay [9] was 6.40; in [10], below 6.00; in assay [11], below 6.00. Further, the pIC50 against Cytochrome P450 3A4 was 6.00; against Cytochrome P450 2C9, 5.74; against Cytochrome P450 2C19 it was 5.66; against Cytochrome P450 1A2, 5.66; with B cell [12] it was 5.72; with B cell [13], 6.00. In the assay with B cell [14], the negative logarithm of the IC50 (pIC50) was 6.04.

For the compound `O=C(Nc1cccc([C@@H]2CN(c3ncnc4[nH]ccc34)CCN2CCO)c1)Nc1c(F)cccc1N1CCCC1`, the pKd is 8.30 in assay [9], 6.38 in [10] and 6.28 in [11]. For the same compound, the negative logarithm of the IC50 (pIC50) was below 5.30 against Cytochrome P450 3A4; below 5.30 against Cytochrome P450 2C9; below 5.30 against Cytochrome P450 2C19; below 5.30 against Cytochrome P450 1A2; 6.62 with B cell [12]; 6.60 in the assay with B cell [13]. For the same compound, the negative-log IC50 (pIC50) in the assay with B cell [14] was 7.04. Besides, the inhibition was found to be 100% in assay [15]; 99% in [16]; 73% in assay [17]; 94% in assay [18]; 100% in [19]; 100% in assay [20]. The inhibition in assay [21] turned out to be 11%; in assay [22], 67%; in assay [23], 71%; in assay [24] it was 100%; in [25], 74%.

The values are drawn from ChEMBL document CHEMBL4387741, “Optimization of novel reversible Bruton's tyrosine kinase inhibitors identified using Tethering-fragment-based screens” (Bioorg Med Chem, 2019).
